Measured values published in patent US9868758B2, “Betulinic proline imidazole derivatives as HIV inhibitors” (HETERO LABS LIMITED, priority 2014, dated 2018).
Like-named read-outs stand apart in the source and are kept apart here.

Legend:
[1] = Single dose oral pharmacokinetic study; set-up: species or system mice; conditions: mouse, in vivo
Method: The test item was administered through oral route to animals (rat/mice) at 30 mg/kg dose in a suitable vehicle at 10 ml/kg dose volume. Blood samples (˜50 uL at each time point) were collected from retro-orbital plexus using K3 EDTA as anticoagulant in eppendorf tubes at defined time intervals under light ether anesthesia. The samples were centrifuged at 3500×g to separate plasma and stored at −80° C. until analysis.
Sample analysis: Test samples were analyzed using LC-MS-MS after developing fit-for-purpose method for each of test compound.

[2] = system: HIV-1 strains, for e.g., 92HT599; assay: Antiviral activity: p24 estimation in HIV-1 infected MT-2 cells; format: cell-based; conditions: for inhibition at 0.01 µM / inhibition at 0.1 µM / inhibition at 1 µM: p24, ~96 hours
Method: MT-2 cells were infected with required number of TCID50's of HIV-1 strains, for e.g., 92HT599. The infected cells were plated at the concentration of 30,000 cells per well in a 96 well plate. Test compound was added to the 96 well plate with the final concentration of DMSO (vehicle—not more than 1%). The plates are then incubated in a CO2 incubator for ˜96 hours (˜4 days) for viral infection. At the end of incubation period an aliquot from each well was taken for p24 estimation. The quantitation of p24 is an estimated index for antiviral activity of the compound. Percent inhibition was calculated with reference to control values (vehicle controls).
p-24 estimation was carried out using Advance biosciences kit as per the procedure detailed by supplier.

[3] = Cyto-toxicity, MTT assay; format: cell-based; conditions: read-out: Cytotoxicity % viability
Method: On day 1 calculate the number of cells required for the assay and seed 3×10^4 cells in 200 μl per well. Weigh the compound and dissolve it in DMSO to get 10 mM stock which is further diluted to 3 mM and 1 mM. The drugs from these stocks were added to plate to get final concentration of 100 μM, 30 μM and 10 μM. […] Incubate for 4 days in 5% CO2 incubator at 37° C. On day 4, 100 μl of medium was removed from each well without disturbing the cells. Add 10 μl of MTT reagent and incubate for 4 hours at 5% CO2 incubator at 37° C. for formation of crystals. Add 200 μl of 0.1N acidic isopropanol to dissolve the crystals and read the plate at 590 nm.

[4] = Human immunodeficiency virus 1, MT2, MT-2 cells, p24, read-out: Antiviral activity IC50
[5] = Human immunodeficiency virus 1, MT2, MT-2 cells
[6] = Mice oral PK @30 mg/kg, plasma, read-out: AUC 0-t
[7] = Mice oral PK @30 mg/kg, plasma, read-out: Cmax
[8] = Human immunodeficiency virus 1, MT2, read-out: Antiviral activity IC50 (nM)

SMILES | AUC(0-t) ([1]; po, 30 mg/kg) | Cmax ([1]; po, 30 mg/kg) | IC50 [2, 4] | other results
C=C(C)[C@@H]1CC[C@]2(C(=O)N3CCC[C@H]3c3nc(C(C)(C)C)cn3CCN(C)C)CC[C@]3(C)[C@H](CC[C@@H]4[C@@]5(C)CC[C@H](OC(=O)[C@H]6C[C@@H](C(=O)O)C6(C)C)C(C)(C)[C@@H]5CC[C@]43C)[C@@H]12 [Compound 11, (1R,3S)-3-((((1R,3aS,5aR,5bR,7aR,9S,11aR,11bR,13aR,13bR)-3a-((S)-2-(4-(tert-butyl)-1-(2-(dimethylamino)ethyl)-1H-imidazol-2-yl)pyrrolidine-1-carbonyl)-5a,5b,8,8,11a-pentamethyl-1-(prop-1-en-2-yl)icosahydro-1H-cyclopenta[a]chrysen-9-yl)oxy)carbonyl)-2,2-dimethyl cyclobutane-1-carboxylic acid] | 755 µg·h/mL | 18100 ng/mL | 3.58 nM | –
C=C(C)[C@@H]1CC[C@]2(C(=O)N3CCC[C@H]3c3nc(-c4cccc(F)c4)cn3CCN(C)C)CC[C@]3(C)[C@H](CC[C@@H]4[C@@]5(C)CC[C@H](OC(=O)[C@H]6C[C@@H](C(=O)O)C6(C)C)C(C)(C)[C@@H]5CC[C@]43C)[C@@H]12 [Compound 12, (1R,3S)-3-((((1R,3aS,5aR,5bR,7aR,9S,11aR,11bR,13aR,13bR)-3a-((S)-2-(1-(2-(dimethylamino)ethyl)-4-(3-fluorophenyl)-1H-imidazol-2-yl)pyrrolidine-1-carbonyl)-5a,5b,8,8,11a-pentamethyl-1-(prop-1-en-2-yl)icosahydro-1H-cyclopenta[a]chrysen-9-yl)oxy)carbonyl)-2,2-dimethyl cyclobutane-1-carboxylic acid] | – | – | – | inhibition at 0.01 µM [2, 5]: 24%; inhibition at 0.1 µM [2, 5]: 44%; inhibition at 1 µM [2, 5]: 99%; viability at 4 days, 10 µM [3]: 42%; viability at 4 days, 30 µM [3]: 31%; viability at 4 days, 100 µM [3]: 5%
C=C(C)[C@@H]1CC[C@]2(C(=O)N3CCC[C@H]3c3nc(-c4ccccc4)cn3C)CC[C@]3(C)[C@H](CC[C@@H]4[C@@]5(C)CC[C@H](OC(=O)CC(C)(C)C(=O)O)C(C)(C)[C@@H]5CC[C@]43C)[C@@H]12 [Compound 15, 2,2-dimethyl-4-oxo-4-(((1R,3aS,5aR,5bR,7aR,9S,11aR,11bR,13aR,13bR)-5a,5b,8,8,11a-pentamethyl-3a-((S)-2-(1-methyl-4-phenyl-1H-imidazol-2-yl)pyrrolidine-1-carbonyl)-1-(prop-1-en-2-yl)icosahydro-1H-cyclopenta[a]chrysen-9-yl)oxy)butanoic acid] | 376 µg·h/mL | 15300 ng/mL | 7.42 nM | –
C=C(C)[C@@H]1CC[C@]2(C(=O)N3CCC[C@H]3c3nc(-c4ccccc4)cn3CCN(C)C)CC[C@]3(C)[C@H](CC[C@@H]4[C@@]5(C)CC[C@H](OC(=O)CC(C)(C)C(=O)O)C(C)(C)[C@@H]5CC[C@]43C)[C@@H]12 [Compound 16, 4-(((1R,3aS,5aR,5bR,7aR,9S,11aR,11bR,13aR,13bR)-3a-((S)-2-(1-(2-(dimethylamino)ethyl)-4-phenyl-1H-imidazol-2-yl)pyrrolidine-1-carbonyl)-5a,5b,8,8,11a-pentamethyl-1-(prop-1-en-2-yl)icosahydro-1H-cyclopenta[a]chrysen-9-yl)oxy)-2,2-dimethyl-4-oxo butanoic acid] | 294 µg·h/mL | 9030 ng/mL | 8.48 nM | –
C=C(C)[C@@H]1CC[C@]2(C(=O)N3CCC[C@H]3c3nc(-c4ccccc4)cn3CCOC)CC[C@]3(C)[C@H](CC[C@@H]4[C@@]5(C)CC[C@H](OC(=O)CC(C)(C)C(=O)O)C(C)(C)[C@@H]5CC[C@]43C)[C@@H]12 [Compound 17, 4-(((1R,3aS,5aR,5bR,7aR,9S,11aR,11bR,13aR,13bR)-3a-((S)-2-(1-(2-methoxyethyl)-4-phenyl-1H-imidazol-2-yl)pyrrolidine-1-carbonyl)-5a,5b,8,8,11a-pentamethyl-1-(prop-1-en-2-yl)icosahydro-1H-cyclopenta[a]chrysen-9-yl)oxy)-2,2-dimethyl-4-oxobutanoic acid] | 271 µg·h/mL | 13000 ng/mL | 0.3 nM | –
C=C(C)[C@@H]1CC[C@]2(C(=O)N3CCC[C@H]3c3nc(-c4cccnc4)cn3CCN(C)C)CC[C@]3(C)[C@H](CC[C@@H]4[C@@]5(C)CC[C@H](OC(=O)CC(C)(C)C(=O)O)C(C)(C)[C@@H]5CC[C@]43C)[C@@H]12 [Compound 18, 4-(((1R,3aS,5aR,5bR,7aR,9S,11aR,11bR,13aR,13bR)-3a-((S)-2-(1-(2-(dimethylamino)ethyl)-4-(pyridin-3-yl)-1H-imidazol-2-yl)pyrrolidine-1-carbonyl)-5a,5b,8,8,11a-pentamethyl-1-(prop-1-en-2-yl)icosahydro-1H-cyclopenta[a]chrysen-9-yl)oxy)-2,2-dimethyl-4-oxobutanoic acid] | 3.01 µg·h/mL | 648 ng/mL | 80.4 nM | –
CN(C)CCn1cc(-c2cccnc2)nc1[C@@H]1CCCN1C(=O)[C@]12CC[C@@H](C3(C)CC3)[C@@H]1[C@H]1CC[C@@H]3[C@@]4(C)CC[C@H](OC(=O)[C@H]5C[C@@H](C(=O)O)C5(C)C)C(C)(C)[C@@H]4CC[C@@]3(C)[C@]1(C)CC2 [Compound 19, (1R,3S)-3-((((1R,3aS,5aR,5bR,7aR,9S,11aR,11bR,13aR,13bR)-3a-((S)-2-(1-(2-(dimethylamino)ethyl)-4-(pyridin-3-yl)-1H-imidazol-2-yl)pyrrolidine-1-carbonyl)-5a,5b,8,8,11a-pentamethyl-1-(1-methylcyclopropyl)icosahydro-1H-cyclopenta[a]chrysen-9-yl)oxy)carbonyl)-2,2-dimethylcyclobutane-1-carboxylic acid] | 97.4 µg·h/mL | 4260 ng/mL | 7.76 nM | –
C=C(C)[C@@H]1CC[C@]2(C(=O)N3CCC[C@H]3c3nc(-c4ccccc4)cn3CCP(=O)(OCC)OCC)CC[C@]3(C)[C@H](CC[C@@H]4[C@@]5(C)CC[C@H](OC(=O)[C@H]6C[C@@H](C(=O)O)C6(C)C)C(C)(C)[C@@H]5CC[C@]43C)[C@@H]12 [Compound 22, (1R,3S)-3-((((1R,3aS,5aR,5bR,7aR,9S,11aR,11bR,13aR,13bR)-3a-((S)-2-(1-(2-(diethoxyphosphoryl)ethyl)-4-phenyl-1H-imidazol-2-yl)pyrrolidine-1-carbonyl)-5a,5b,8,8,11a-pentamethyl-1-(prop-1-en-2-yl)icosahydro-1H-cyclopenta[a]chrysen-9-yl)oxy)carbonyl)-2,2-dimethyl cyclobutane-1-carboxylic acid] | – | – | – | AUC(0-t) [1, 6]: 215 µg·h/mL; Cmax [1, 7]: 5830 ng/mL; IC50 [2, 8]: 14.9 nM
C=C(C)[C@@H]1CC[C@]2(C(=O)N3CCC[C@H]3c3nc(-c4ccccc4)cn3CCP(=O)(O)O)CC[C@]3(C)[C@H](CC[C@@H]4[C@@]5(C)CC[C@H](OC(=O)[C@H]6C[C@@H](C(=O)O)C6(C)C)C(C)(C)[C@@H]5CC[C@]43C)[C@@H]12 [Compound 23, (1R,3S)-2,2-dimethyl-3-((((1R,3aS,5aR,5bR,7aR,9S,11aR,11bR,13aR,13bR)-5a,5b,8,8,11a-pentamethyl-3a-((S)-2-(4-phenyl-1-(2-phosphonoethyl)-1H-imidazol-2-yl)pyrrolidine-1-carbonyl)-1-(prop-1-en-2-yl)icosahydro-1H-cyclopenta[a]chrysen-9-yl)oxy)carbonyl)cyclo butane-1-carboxylic acid] | – | – | – | inhibition at 0.01 µM [2, 5]: 24%; inhibition at 0.1 µM [2, 5]: 21%; inhibition at 1 µM [2, 5]: 66%; viability at 4 days, 10 µM [3]: 88%; viability at 4 days, 30 µM [3]: 77%; viability at 4 days, 100 µM [3]: 66%
C=C(C)[C@@H]1CC[C@]2(C(=O)N3CCC[C@H]3c3nc(-c4ccc(F)cc4)cn3CCP(=O)(OCC)OCC)CC[C@]3(C)[C@H](CC[C@@H]4[C@@]5(C)CC[C@H](OC(=O)[C@H]6C[C@@H](C(=O)O)C6(C)C)C(C)(C)[C@@H]5CC[C@]43C)[C@@H]12 [Compound 24, (1R,3S)-3-((((1R,3aS,5aR,5bR,7aR,9S,11aR,11bR,13aR,13bR)-3a-((S)-2-(1-(2-(diethoxyphosphoryl)ethyl)-4-(4-fluorophenyl)-1H-imidazol-2-yl)pyrrolidine-1-carbonyl)-5a,5b,8,8,11a-pentamethyl-1-(prop-1-en-2-yl)icosahydro-1H-cyclopenta[a]chrysen-9-yl)oxy)carbonyl)-2,2-dimethylcyclobutane-1-carboxylic acid] | – | – | – | AUC(0-t) [1, 6]: 89.4 µg·h/mL; Cmax [1, 7]: 2550 ng/mL; IC50 [2, 8]: 0.972 nM
